Data: patent US20230346827A1 (priority 2020, published 2023)

Tested on: rats subjected to sTBI
Experiment: sTBI rats, LMW-DS 1, 5, 15 mg/kg s.c. 30 min post-TBI: HPLC of brain energy metabolites, antioxidants, oxidative/nitrosative stress biomarkers (Example 4)
Format: in vivo, rat
Procedure: Male Wistar rats (n=160) of 300-350 g body weight were used in this study. They were fed with standard laboratory diet and water ad libitum in a controlled environment.
As the accepted anesthetic mixture, animals received 35 mg/kg b.w. ketamine and 0.25 mg/kg body weight midazolam by intramuscular injection. Diffuse sTBI was induced according to the “weight drop” impact acceleration model set up by Marmarou et al. J. Neurosurg. 1994, 80: 291-300. This model causes diffuse axonal injury and it is able to reproduce the physical and mechanical characteristics of the diffuse TBI in humans.
Severe TBI was induced by dropping a 450 g weight from 2 meters height onto the rat head protected by a helmet (metal disk previously fixed on the skull using dental cement) in order to uniformly distribute the mechanical force to the brain. Rats were placed prone on a bed of specific polyurethane foam inserted in a special container; this foam dissipates the major part of the potential energy (deriving from the mechanical forces) and prevents any rebound of the animal after the impact that could produce spinal damages.
After 2 or 7 days from TBI induction, rats were anesthetized again and then immediately sacrificed. These time points are coincident with the worst biochemical derangement (2 days) or, in the case of a mildly injured brain, with a full metabolic recovery (7 days).
The drug treatment consisted in a subcutaneous injection of 0.5 ml of LMW-DS (ILB®, Tikomed, Viken, Sweden, WO 2016/076780) and administered at 3 different concentrations (1, 5 and 15 mg/kg body weight), according to the schematic protocol described below. Sham-operated animals underwent the same procedure of anesthesia but TBI and were used as the control group.
(§1) Rats subjected to sTBI and receiving a single administration of LMW-DS after 30 minutes post-TBI, with sacrifice at 2 days post-TBI. Animals were divided in the following subgroups: • 1. 12 animals subjected to sTBI and treated with 1 mg/kg b.w. LMW-DS • 2. 12 animals subjected to sTBI and treated with 5 mg/kg b.w. LMW-DS • 3. 12 animals subjected to sTBI and treated with 15 mg/kg b.w. LMW-DS
as §1, with “at 7” for “at 2”
Rats (n = 12) subjected to sTBI and receiving repeated administrations of the maximal dose of LMW-DS (15 mg/kg b.w.) after 30 minutes, 3 days and 5 days post-TBI, with sacrifice at 7 days post-TBI. Four additional rats were used for the histo-morphological studies. Total rats in this group: n=16
To minimize metabolite loss, an in vivo craniectomy was performed in all animals during anesthesia. The rat skull was carefully removed, the brain was exposed, sharply cut along the sagittal fissure and the two hemispheres were separated. The hemispheres dedicated to biochemical analyses were freeze-clamped by aluminum tongues pre-cooled in liquid nitrogen and then immersed in liquid nitrogen. The freeze-clamping procedure was introduced to accelerate freezing of the tissue, thus minimizing potential metabolite loss.
Tissue homogenization for metabolite analyses was effected as described below. After the wet weight (w.w.) determination, the frozen hemispheres were placed into 7 ml of ice-cold, nitrogen-saturated, precipitating solution (1:10 w/v) composed by CH3CN + 10 mM KH2PO4, pH 7.40, (3:1; v:v), and the homogenization was performed using an Ultra-Turrax homogenizer set at 24,000 rpm/min (Janke & Kunkel, Staufen, Germany). […]

[1] = 1 mg/kg, 7 d post-sTBI, adimensional ratio

sodium salt of dextran sulfate [LMW-DS]
UDP-Glc (1 mg/kg, 7 d post-sTBI): 63.19 ± 12.84 nmol/g w.w. | UDP-GlcNac (1 mg/kg, 7 d post-sTBI): 85.36 ± 29.53 nmol/g w.w. | UMP (1 mg/kg, 7 d post-sTBI): 103.06 ± 19.96 nmol/g w.w. | URACIL (1 mg/kg, 7 d post-sTBI): 14.78 ± 3.04 nmol/g w.w. | URIC ACID (1 mg/kg, 7 d post-sTBI): 7.13 ± 1.70 nmol/g w.w. | URIDINE (1 mg/kg, 7 d post-sTBI): 110.17 ± 26.11 nmol/g w.w. | UTP (1 mg/kg, 7 d post-sTBI): 179.75 ± 31.48 nmol/g w.w. | XANTHINE (1 mg/kg, 7 d post-sTBI): 12.53 ± 3.54 nmol/g w.w. | β-PSEUDOURIDINE (1 mg/kg, 7 d post-sTBI): 14.00 ± 2.60 nmol/g w.w. | ATP/ADP [1]: 6.12 ± 0.78 | NAD+/NADH [1]: 33.91 ± 9.32 | ADENOSINE (5 mg/kg, 2 d post-sTBI): 92.58 ± 22.16 nmol/g w.w. | ADP (5 mg/kg, 2 d post-sTBI): 364.92 ± 31.39 nmol/g w.w. | ADP-Ribose (5 mg/kg, 2 d post-sTBI): 21.65 ± 4.35 nmol/g w.w. | AMP (5 mg/kg, 2 d post-sTBI): 67.03 ± 11.85 nmol/g w.w. | ASCORBIC ACID (5 mg/kg, 2 d post-sTBI): 2626.68 ± 151.17 nmol/g w.w. | ATP (5 mg/kg, 2 d post-sTBI): 1683.87 ± 98.66 nmol/g w.w. | Acetyl-CoA (5 mg/kg, 2 d post-sTBI): 34.85 ± 4.05 nmol/g w.w. | CDP choline (5 mg/kg, 2 d post-sTBI): 5.16 ± 0.77 nmol/g w.w. | CMP (5 mg/kg, 2 d post-sTBI): 28.94 ± 5.91 nmol/g w.w. | CREATININE (5 mg/kg, 2 d post-sTBI): 10.22 ± 1.90 nmol/g w.w. | CTP (5 mg/kg, 2 d post-sTBI): 37.72 ± 7.63 nmol/g w.w. | CYTIDINE (5 mg/kg, 2 d post-sTBI): 7.47 ± 1.35 nmol/g w.w. | CYTOSINE (5 mg/kg, 2 d post-sTBI): 13.65 ± 1.67 nmol/g w.w. | CoA-SH (5 mg/kg, 2 d post-sTBI): 7.46 ± 0.82 nmol/g w.w. | GDP (5 mg/kg, 2 d post-sTBI): 183.27 ± 25.32 nmol/g w.w. | GDP Glucose (5 mg/kg, 2 d post-sTBI): 83.81 ± 37.35 nmol/g w.w. | GMP (5 mg/kg, 2 d post-sTBI): 167.44 ± 8.47 nmol/g w.w. | GSH (5 mg/kg, 2 d post-sTBI): 2067.79 ± 301.54 nmol/g w.w. | GTP (5 mg/kg, 2 d post-sTBI): 180.01 ± 18.99 nmol/g w.w. | GUANINE (5 mg/kg, 2 d post-sTBI): 1.68 ± 0.42 nmol/g w.w. | GUANOSINE (5 mg/kg, 2 d post-sTBI): 30.97 ± 5.15 nmol/g w.w. | HYPOXANTHINE (5 mg/kg, 2 d post-sTBI): 4.18 ± 0.68 nmol/g w.w. | IMP (5 mg/kg, 2 d post-sTBI): 33.19 ± 6.25 nmol/g w.w. | INOSINE (5 mg/kg, 2 d post-sTBI): 114.89 ± 14.98 nmol/g w.w. | MDA (5 mg/kg, 2 d post-sTBI): 32.73 ± 5.33 nmol/g w.w. | Malonyl-CoA (5 mg/kg, 2 d post-sTBI): 35.58 ± 7.54 nmol/g w.w. | NADH (5 mg/kg, 2 d post-sTBI): 10.37 ± 1.19 nmol/g w.w. | NADPH (5 mg/kg, 2 d post-sTBI): 37.48 ± 3.11 nmol/g w.w. | NADP^+ (5 mg/kg, 2 d post-sTBI): 11.86 ± 2.71 nmol/g w.w. | NAD^+ (5 mg/kg, 2 d post-sTBI): 376.85 ± 64.15 nmol/g w.w. | NO2 (5 mg/kg, 2 d post-sTBI): 218.12 ± 26.28 nmol/g w.w. | NO3 (5 mg/kg, 2 d post-sTBI): 148.41 ± 32.30 nmol/g w.w. | UDP (5 mg/kg, 2 d post-sTBI): 70.93 ± 7.27 nmol/g w.w. | UDP-Gal (5 mg/kg, 2 d post-sTBI): 116.42 ± 9.72 nmol/g w.w. | UDP-GalNac (5 mg/kg, 2 d post-sTBI): 20.75 ± 3.06 nmol/g w.w. | UDP-Glc (5 mg/kg, 2 d post-sTBI): 28.60 ± 4.23 nmol/g w.w. | UDP-GlcNac (5 mg/kg, 2 d post-sTBI): 140.58 ± 12.80 nmol/g w.w. | UMP (5 mg/kg, 2 d post-sTBI): 97.98 ± 13.53 nmol/g w.w. | URACIL (5 mg/kg, 2 d post-sTBI): 17.83 ± 3.48 nmol/g w.w. | URIC ACID (5 mg/kg, 2 d post-sTBI): 11.22 ± 2.30 nmol/g w.w. | URIDINE (5 mg/kg, 2 d post-sTBI): 117.21 ± 20.64 nmol/g w.w. | UTP (5 mg/kg, 2 d post-sTBI): 142.82 ± 22.43 nmol/g w.w. | XANTHINE (5 mg/kg, 2 d post-sTBI): 6.71 ± 0.70 nmol/g w.w. | β-PSEUDOURIDINE (5 mg/kg, 2 d post-sTBI): 10.41 ± 2.09 nmol/g w.w. | NAD^+/NADH (5 mg/kg, 2 d post-sTBI, adimensional ratio): 36.61 ± 6.09 | ADENOSINE (5 mg/kg, 7 d post-sTBI): 22.24 ± 16.47 nmol/g w.w. | ADP (5 mg/kg, 7 d post-sTBI): 289.27 ± 38.52 nmol/g w.w. | ADP-Ribose (5 mg/kg, 7 d post-sTBI): 6.76 ± 1.70 nmol/g w.w. | AMP (5 mg/kg, 7 d post-sTBI): 59.50 ± 4.68 nmol/g w.w. | ASCORBIC ACID (5 mg/kg, 7 d post-sTBI): 2195.87 ± 264.45 nmol/g w.w. | ATP (5 mg/kg, 7 d post-sTBI): 1730.92 ± 139.24 nmol/g w.w. | Acetyl-CoA (5 mg/kg, 7 d post-sTBI): 22.87 ± 3.89 nmol/g w.w. | CDP choline (5 mg/kg, 7 d post-sTBI): 10.37 ± 3.33 nmol/g w.w. | CMP (5 mg/kg, 7 d post-sTBI): 55.67 ± 22.97 nmol/g w.w. | CREATININE (5 mg/kg, 7 d post-sTBI): 5.48 ± 0.97 nmol/g w.w. | CTP (5 mg/kg, 7 d post-sTBI): 79.08 ± 14.54 nmol/g w.w. | CYTIDINE (5 mg/kg, 7 d post-sTBI): 26.51 ± 9.33 nmol/g w.w. | CYTOSINE (5 mg/kg, 7 d post-sTBI): 12.67 ± 2.72 nmol/g w.w. | CoA-SH (5 mg/kg, 7 d post-sTBI): 51.86 ± 6.66 nmol/g w.w. | GDP (5 mg/kg, 7 d post-sTBI): 126.82 ± 14.49 nmol/g w.w. | GDP Glucose (5 mg/kg, 7 d post-sTBI): 104.76 ± 12.25 nmol/g w.w. | GMP (5 mg/kg, 7 d post-sTBI): 101.42 ± 48.00 nmol/g w.w. | GSH (5 mg/kg, 7 d post-sTBI): 2412.17 ± 317.97 nmol/g w.w. | GTP (5 mg/kg, 7 d post-sTBI): 453.86 ± 41.27 nmol/g w.w. | GUANINE (5 mg/kg, 7 d post-sTBI): 7.92 ± 3.37 nmol/g w.w. | GUANOSINE (5 mg/kg, 7 d post-sTBI): 33.42± 6.96 nmol/g w.w. | HYPOXANTHINE (5 mg/kg, 7 d post-sTBI): 13.45 ± 3.91 nmol/g w.w. | IMP (5 mg/kg, 7 d post-sTBI): 68.72 ± 17.60 nmol/g w.w. | INOSINE (5 mg/kg, 7 d post-sTBI): 196.61 ± 22.06 nmol/g w.w. | MDA (5 mg/kg, 7 d post-sTBI): 17.78 ± 2.94 nmol/g w.w.
